Laboratory results: patent publication US4523033A, “Heart testing compound” (The United States of America as represented by the United …, priority 1983, dated 1985)
Read-outs that look alike come from different tables or passages of the source.

Experiments:
[1] = cited from earlier work
[2] = Cumulative excretion of radioactivity in urine and feces after injection; format: in vivo; details: rat
Procedure: These studies were conducted over a five-day period, which represents a decay period of […] for 13.2-hr iodine-123. The cumulative excretion levels in urine and feces were 43.2±1.8% injected dose after two days and […] after five days. The radioactive content of the urine (20.8±2.1%) and feces 22.4±1.1%) were similar after two days, but after five days the cumulative fecal activity (41.4±4.3%) was greater than that for urine (30.5±4.0%).

[3] = Tissue distribution of radioactivity in rats after intravenous administration; format: in vivo; details: rat; for tissue uptake at 5 min / tissue uptake at 0.5 h / tissue uptake at 1 h / tissue uptake at 2 h / tissue uptake at 6 h / tissue uptake at 24 h / tissue uptake at 120 h: iv
Procedure: In Table I, the tissue distribution of radioactivity in rats after intravenous administration of a bovine serium-albumin complex of the 15-(p-[^125 I]-iodophenyl)-6-Tellurapentadecanoic acid is summarized for various time periods from 5 minutes to 5 days.

[4] = after five days, % injected dose, 7200 min
[5] = after two days, % injected dose, 2880 min

Structure (SMILES): CCCCCCCC[123Te]CCCCCCCC(=O)O [9-[^123m Te] telluraheptadecanoic acid]
- Uptake and retention in the myocardium (in words) ([1]; Knapp et al 1981): rapid uptake and prolonged retention in the myocardium

Structure (SMILES): O=C(O)CCCCCCCCCCCCCCc1ccc([125I])cc1 [15-(p-[^125 I]iodophenyl) pentadecanoic acid]
- Washout from the myocardium (in words) ([1]; background): relatively rapid

Structure (SMILES): O=C(O)CCCC[Te]CCCCCCCCCc1ccc([125I])cc1 [15-(p-[^125 I]iodophenyl)-6-tellurapentadecanoic acid]
- Cumulative excretion in urine and feces [2, 4]: 71.6±8.3%
- Cumulative fecal activity [2, 4]: 41.4±4.3%
- Cumulative urine activity [2, 4]: 30.5±4.0%
- Cumulative excretion in urine and feces ([2]; after two days, 2880 min): 43.2±1.8 % injected dose
- Radioactive content of the feces [2, 5]: 22.4±1.1%
- Radioactive content of the urine [2, 5]: 20.8±2.1%
- Heart retention of the maximum uptake observed after 5 minutes ([3]; after 6 hours): 80%
- Heart retention of the maximal value ([3]; after 24 hours): 55%
- tissue uptake at 5 min ([3]; blood, 5 min, read-out: Distribution of radioactivity, Blood): 0.26 %ID/g
- tissue uptake at 0.5 h ([3]; blood, 30 min, read-out: Distribution of radioactivity, Blood): 0.45 %ID/g
- tissue uptake at 1 h ([3]; blood, 60 min, read-out: Distribution of radioactivity, Blood): 0.34 %ID/g
- tissue uptake at 2 h ([3]; blood, 2 h, read-out: Distribution of radioactivity, Blood): 0.42 %ID/g
- tissue uptake at 6 h ([3]; blood, 6 h, read-out: Distribution of radioactivity, Blood): 0.31 %ID/g
- tissue uptake at 24 h ([3]; blood, 1 d, read-out: Distribution of radioactivity, Blood): 0.2 %ID/g
- tissue uptake at 120 h ([3]; blood, 5 d, read-out: Distribution of radioactivity, Blood): 0.03 %ID/g
- tissue uptake at 5 min ([3]; heart, 5 min, read-out: Distribution of radioactivity, Heart): 5.87 %ID/g
- tissue uptake at 0.5 h ([3]; heart, 30 min, read-out: Distribution of radioactivity, Heart): 5.43 %ID/g
- tissue uptake at 1 h ([3]; heart, 60 min, read-out: Distribution of radioactivity, Heart): 5.55 %ID/g
- tissue uptake at 2 h ([3]; heart, 2 h, read-out: Distribution of radioactivity, Heart): 5.85 %ID/g
- tissue uptake at 6 h ([3]; heart, 6 h, read-out: Distribution of radioactivity, Heart): 4.78 %ID/g
- tissue uptake at 24 h ([3]; heart, 1 d, read-out: Distribution of radioactivity, Heart): 3.25 %ID/g
- tissue uptake at 120 h ([3]; heart, 5 d, read-out: Distribution of radioactivity, Heart): 0.94 %ID/g
- Blood clearance (in words) ([3]; i.v.): rapid blood clearance
- Blood levels (in words) ([3]; i.v.): low blood levels
- Deiodination (in words) ([3]; i.v.): minimal deiodination
- Myocardial uptake (in words) ([3]; i.v.): rapid and pronounced myocardial uptake
- Radioactivity accumulated in thyroid tissue (in words) ([3]; i.v.): Only marginal radioactivity accumulated in the thyroid tissue
- Retention of radioactivity in the heart (in words) ([3]; i.v.): Prolonged retention of radioactivity
- Distribution of radioactivity, Blood ([3]; i.v., 5 min): 2.00 % injected dose/organ
- Distribution of radioactivity, Heart ([3]; i.v., 5 min): 2.98 % injected dose/organ
- Distribution of radioactivity, Kidneys ([3]; i.v., 5 min): 1.25 % injected dose/organ
- Distribution of radioactivity, Liver ([3]; i.v., 5 min): 50.94 % injected dose/organ
- Distribution of radioactivity, Lungs ([3]; i.v., 5 min): 0.97 % injected dose/organ
- Distribution of radioactivity, Thyroid ([3]; i.v., 5 min): 0.02 % injected dose/organ
- Distribution of radioactivity, Blood ([3]; i.v., 30 min): 3.41 % injected dose/organ
- Distribution of radioactivity, Heart ([3]; i.v., 30 min): 2.61 % injected dose/organ
- Distribution of radioactivity, Kidneys ([3]; i.v., 30 min): 1.52 % injected dose/organ
- Distribution of radioactivity, Liver ([3]; i.v., 30 min): 39.28 % injected dose/organ
- Distribution of radioactivity, Lungs ([3]; i.v., 30 min): 1.05 % injected dose/organ
- Distribution of radioactivity, Thyroid ([3]; i.v., 30 min): 0.02 % injected dose/organ
- Distribution of radioactivity, Blood ([3]; i.v., 60 min): 2.66 % injected dose/organ
- Distribution of radioactivity, Heart ([3]; i.v., 60 min): 2.87 % injected dose/organ
- Distribution of radioactivity, Kidneys ([3]; i.v., 60 min): 1.73 % injected dose/organ
- Distribution of radioactivity, Liver ([3]; i.v., 60 min): 39.03 % injected dose/organ
- Distribution of radioactivity, Lungs ([3]; i.v., 60 min): 1.01 % injected dose/organ
- Distribution of radioactivity, Thyroid ([3]; i.v., 60 min): 0.02 % injected dose/organ
- Distribution of radioactivity, Blood ([3]; i.v., 2 h): 3.01 % injected dose/organ
- Distribution of radioactivity, Heart ([3]; i.v., 2 h): 2.87 % injected dose/organ
- Distribution of radioactivity, Kidneys ([3]; i.v., 2 h): 1.53 % injected dose/organ
- Distribution of radioactivity, Liver ([3]; i.v., 2 h): 44.03 % injected dose/organ
- Distribution of radioactivity, Lungs ([3]; i.v., 2 h): 1.29 % injected dose/organ
- Distribution of radioactivity, Thyroid ([3]; i.v., 2 h): 0.04 % injected dose/organ
- Distribution of radioactivity, Blood ([3]; i.v., 6 h): 2.26 % injected dose/organ
- Distribution of radioactivity, Heart ([3]; i.v., 6 h): 2.32 % injected dose/organ
- Distribution of radioactivity, Kidneys ([3]; i.v., 6 h): 1.25 % injected dose/organ
- Distribution of radioactivity, Liver ([3]; i.v., 6 h): 46.39 % injected dose/organ
- Distribution of radioactivity, Lungs ([3]; i.v., 6 h): 0.85 % injected dose/organ
- Distribution of radioactivity, Thyroid ([3]; i.v., 6 h): 0.07 % injected dose/organ
- Distribution of radioactivity, Blood ([3]; i.v., 1 d): 1.50 % injected dose/organ
- Distribution of radioactivity, Heart ([3]; i.v., 1 d): 1.60 % injected dose/organ
- Distribution of radioactivity, Kidneys ([3]; i.v., 1 d): 0.81 % injected dose/organ
- Distribution of radioactivity, Liver ([3]; i.v., 1 d): 34.28 % injected dose/organ
- Distribution of radioactivity, Lungs ([3]; i.v., 1 d): 0.70 % injected dose/organ
- Distribution of radioactivity, Thyroid ([3]; i.v., 1 d): 0.26 % injected dose/organ
- Distribution of radioactivity, Blood ([3]; i.v., 5 d): 0.23 % injected dose/organ
- Distribution of radioactivity, Heart ([3]; i.v., 5 d): 0.45 % injected dose/organ
- Distribution of radioactivity, Kidneys ([3]; i.v., 5 d): 0.23 % injected dose/organ
- Distribution of radioactivity, Liver ([3]; i.v., 5 d): 6.46 % injected dose/organ
- Distribution of radioactivity, Lungs ([3]; i.v., 5 d): 0.24 % injected dose/organ
- Distribution of radioactivity, Thyroid ([3]; i.v., 5 d): 0.32 % injected dose/organ
- tissue uptake at 5 min ([3]; kidneys, 5 min, read-out: Distribution of radioactivity, Kidneys): 1.02 %ID/g
- tissue uptake at 0.5 h ([3]; kidneys, 30 min, read-out: Distribution of radioactivity, Kidneys): 1.25 %ID/g
- tissue uptake at 1 h ([3]; kidneys, 60 min, read-out: Distribution of radioactivity, Kidneys): 1.41 %ID/g
- tissue uptake at 2 h ([3]; kidneys, 2 h, read-out: Distribution of radioactivity, Kidneys): 1.37 %ID/g
- tissue uptake at 6 h ([3]; kidneys, 6 h, read-out: Distribution of radioactivity, Kidneys): 1.12 %ID/g
- tissue uptake at 24 h ([3]; kidneys, 1 d, read-out: Distribution of radioactivity, Kidneys): 0.7 %ID/g
- tissue uptake at 120 h ([3]; kidneys, 5 d, read-out: Distribution of radioactivity, Kidneys): 0.2 %ID/g
- tissue uptake at 5 min ([3]; liver, 5 min, read-out: Distribution of radioactivity, Liver): 9.57 %ID/g
- tissue uptake at 0.5 h ([3]; liver, 30 min, read-out: Distribution of radioactivity, Liver): 7.78 %ID/g
- tissue uptake at 1 h ([3]; liver, 60 min, read-out: Distribution of radioactivity, Liver): 7.69 %ID/g
- tissue uptake at 2 h ([3]; liver, 2 h, read-out: Distribution of radioactivity, Liver): 8.38 %ID/g
- tissue uptake at 6 h ([3]; liver, 6 h, read-out: Distribution of radioactivity, Liver): 8.37 %ID/g
- tissue uptake at 24 h ([3]; liver, 1 d, read-out: Distribution of radioactivity, Liver): 6.24 %ID/g
- tissue uptake at 120 h ([3]; liver, 5 d, read-out: Distribution of radioactivity, Liver): 1.28 %ID/g
- tissue uptake at 5 min ([3]; lungs, 5 min, read-out: Distribution of radioactivity, Lungs): 1.14 %ID/g
- tissue uptake at 0.5 h ([3]; lungs, 30 min, read-out: Distribution of radioactivity, Lungs): 1.25 %ID/g
- tissue uptake at 1 h ([3]; lungs, 60 min, read-out: Distribution of radioactivity, Lungs): 1.48 %ID/g
- tissue uptake at 2 h ([3]; lungs, 2 h, read-out: Distribution of radioactivity, Lungs): 1.57 %ID/g
- tissue uptake at 6 h ([3]; lungs, 6 h, read-out: Distribution of radioactivity, Lungs): 1.1 %ID/g
- tissue uptake at 24 h ([3]; lungs, 1 d, read-out: Distribution of radioactivity, Lungs): 0.89 %ID/g
- tissue uptake at 120 h ([3]; lungs, 5 d, read-out: Distribution of radioactivity, Lungs): 0.33 %ID/g
- tissue uptake at 5 min ([3]; thyroid, 5 min, read-out: Distribution of radioactivity, Thyroid): 1.52 %ID/g
- tissue uptake at 0.5 h ([3]; thyroid, 30 min, read-out: Distribution of radioactivity, Thyroid): 1.51 %ID/g
- tissue uptake at 1 h ([3]; thyroid, 60 min, read-out: Distribution of radioactivity, Thyroid): 1.48 %ID/g
- tissue uptake at 2 h ([3]; thyroid, 2 h, read-out: Distribution of radioactivity, Thyroid): 3.51 %ID/g
- tissue uptake at 6 h ([3]; thyroid, 6 h, read-out: Distribution of radioactivity, Thyroid): 5.89 %ID/g
- tissue uptake at 24 h ([3]; thyroid, 1 d, read-out: Distribution of radioactivity, Thyroid): 22.8 %ID/g
- tissue uptake at 120 h ([3]; thyroid, 5 d, read-out: Distribution of radioactivity, Thyroid): 30.2 %ID/g
- tissue uptake at 5 min ([3]; thyroid, after 5 minutes, read-out: Radioactivity accumulated in the thyroid tissue): 1.52 %ID/g
- tissue uptake at 6 h ([3]; thyroid, after 6 hours, read-out: Radioactivity accumulated in the thyroid tissue): 5.84 %ID/g

Structure (SMILES): O=C(O)CCCCCCCCCCCCCCc1ccc(I)cc1 [15-(p-iodophenyl) pentadecanoic acid]
- Concentration of radioactive iodide in the blood (in words) ([1]; Machulla et al 1980): avoids the high concentration of radioactive iodide in the blood
